From article PMC8205030, “Methoxy and bromo scans on N-(5-methoxyphenyl) methoxybenzenesulphonamides reveal potent cytotoxic compounds, especially against the human breast adenocarcinoma MCF7 cell line” (Journal of Enzyme Inhibition and Medicinal Chemistry, 2021)
pIC50: −log10 of the molar value.

Legend:
[1] = system: HEK293 (human embryonic kidney) cells; assay: Cell growth assay (XTT), non-tumorigenic HEK293; format: cell-based
Protocol: The presence of mycoplasma was routinely checked with MycoAlert kit (Lonza-Cambrex) and only mycoplasma-free cells were used in the experiments. Tumour cell lines were kindly provided by Dr Faustino Mollinedo from Centro de Investigaciones Biológicas Margarita Salas, Madrid, Spain. To determine cell growth, cells in exponential growth phase were seeded (100 µL/well in 96-well plates) with appropriate cell concentration (1.5 × 10^4 cells/mL for MCF7, HeLa and HEK-293 and 3 × 10^4 cells/mL for HT-29) in complete DMEM or RPMI 1640 medium (see above) at 37 °C and 5% CO2 atmosphere. After 24 h incubation, to allow cells to attach to the plates, all compounds were added at 1 µM concentration (10 µL/well in 96-well plates) and the effect on the proliferation was evaluated 72 h post-treatment. Compounds showing antiproliferative effects at tested concentration were selected for IC50 calculation (50% inhibitory concentration compared to the untreated controls) from 10^−5 to 10^−10 M concentration. Nonlinear curves fitting the experimental data were carried out for each compound. […] A freshly prepared mixture solution of XTT labelling reagent with 0.02% (v/v) PMS (N-methyl-dibenzopyrazine methyl sulfate) electron coupling reagent was added to cells (50 µL/well in 96-well plates, the total volume of 160 µL/well) and were incubated during the corresponding time according to each cell line (4 h for MCF7 and HeLa and 6 h for HT-29 and HEK-293) in a humidified atmosphere (37 °C, 5% CO2). The absorbance of the formazan product generated was measured at a test wavelength of 450 nm using a multi-well plate reader (Ultra Evolution, Tecan, Männedorf, Suiza). Compounds were dissolved in DMSO and the final solvent concentrations never exceeded 0.5% (v/v). The control wells included treated cells with 0.5% (v/v) DMSO and the positive control. 10 µM verapamil was included as a control for the HT-29 cell line. Measurements were performed in triplicate, and each experiment was repeated three times.

[2] = system: p-62 in HeLa cells; assay: Western blot of autophagosome marker p-62, HeLa; format: cell-based, human; settings: 175 nM, 24 h
Protocol: MCF7, HeLa and HT-29 cells in an exponential growth phase at 2 × 10^4 cells/mL were seeded in Petri dishes (20 × 100 mm) (10 ml/dish). After 24 h incubation, cells were treated with compound 25 at 175 nM, and the levels of p-62 in treated and untreated cells were measured at 24 h post-treatment. The culture medium was removed, cells were washed with PBS and resuspended in 1 ml lysis buffer (50 mM Tris, 130 mM NaCl, 1 mM EDTA, 1% Triton X-100) containing protease inhibitors (Complete, Roche Applied Science, Indianapolis). Cells were harvested and incubated with lysis buffer for 30 min at 4 °C in constant agitation. Cell extracts were centrifuged at 12,000 rpm for 15 min at 4 °C and the supernatants were stored at −80 °C. Protein concentrations were determined using Bradford (BioRad, Hercules, CA) method taking BSA (Bovine Serum Albumin) as standard. Protein extracts were used for electrophoresis mixing with loading buffer (4% SDS, 0.05% bromophenol blue, 20% glycerine, 2% β-mercaptoethanol, and Tris 100 mM at pH 6.8). Proteins were then denatured at 95 °C for 7 min. Protein samples (50 μg/lane) were subjected to electrophoresis on 8% acrylamide gel and SDS-PAGE running buffer at constant voltage (140 V). Then, acrylamide gels were transferred to a PVDF membrane (Merck Millipore, Burlington, Massachusetts, USA) using a semi-dry transfer system for 30 min at constant voltage (15 V). […]

[3] = system: HT-29 cells; assay: Apoptotic cell death quantification (Annexin V-FITC/PI), HT-29; format: cell-based, human; settings: for Early apoptosis / Late apoptosis / Live (AnV–/PI–) / Necrosis: 72 h; for Apoptotic response: HT-29, 72 h
Protocol: MCF7, HeLa, and HT-29 apoptotic cells were quantified using an Annexin V-FITC/PI apoptosis detection kit (Immunostep, Salamanca, Spain) according to the manufacturer’s guidelines. 1.5 ml/well of cells in the exponential growth phase at 2 × 10^4 cells/mL were seeded onto 12-well plates and left to attach overnight. After 24 h incubation, cells were treated with compound 25 at 87.5 or 175 nM. 72 h post-treatment, attached and floating cells of treated and untreated wells were collected, centrifuged, resuspended in the Annexin V binding buffer, and stained with Annexin V-FITC/PI. Cells were then incubated in darkness at room temperature for 15 min and a total of 30,000 cells were acquired and analysed using the BD Accuri™ C6 Plus Flow Cytometer and Software (version 1.0.264.21, BD Biosciences, San José, CA, USA), respectively. Compounds were dissolved in DMSO and the final solvent concentrations never exceeded 0.5% (v/v). Control wells included cells with 0.5% (v/v) DMSO.

COc1ccc(S(=O)(=O)N(CC#N)c2cc(OC)c(Br)cc2OC)cc1 [Compound 25, N-(4-bromo-2,5-dimethoxyphenyl)-N-(cyanomethyl)-4-methoxybenzenesulphonamide]
Selectivity index HEK293 vs HeLa and MCF7 tumour cells [1]: 0.5 to 2 fold | pIC50 ([1]; Homo sapiens, HEK293, non-tumorigenic cell line, 72 h, XTT, read-out: Antiproliferative activity IC50 HEK293): 7.35 | p-62 levels [2]: almost complete reduction in the expression of p-62 | Early apoptosis ([3]; HT-29, 87.5 nM): 16.4% | Late apoptosis ([3]; HT-29, 87.5 nM): 6.8% | Live (AnV–/PI–) ([3]; HT-29, 87.5 nM): 76.2% | Necrosis ([3]; HT-29, 87.5 nM): 0.7% | Early apoptosis ([3]; HT-29, 175 nM): 20.4% | Late apoptosis ([3]; HT-29, 175 nM): 15.3% | Live (AnV–/PI–) ([3]; HT-29, 175 nM): 61.7% | Necrosis ([3]; HT-29, 175 nM): 2.5% | Apoptotic response ([3]; lower end of printed span (87.5 nM)): 23% | Apoptotic response ([3]; upper end of printed span (175 nM)): 36%
